Test results as given in ChEMBL document CHEMBL1138103, “Synthesis and antibacterial activity of new fluoroquinolones containing a substituted N-(phenethyl)piperazine moiety” (2006).
In brackets after ≈: the same amount, converted by molar mass.

Experiments:
Assay type in all cases: functional
Klebsiella pneumoniae = experiment: microbe, parasite or virus in culture; conditions: ATCC 10031
Description: Antibacterial activity against Klebsiella pneumoniae ATCC 10031 by agar-dilution method

[1] = system: Staphylococcus epidermidis; experiment: microbe, parasite or virus in culture; conditions: ATCC 12228
Description: Antibacterial activity against Staphylococcus epidermidis ATCC 12228 by agar-dilution method

Escherichia coli = experiment: microbe, parasite or virus in culture; conditions: ATCC 8739
Description: Antibacterial activity against Escherichia coli ATCC 8739 by agar-dilution method

Staphylococcus aureus [2] = experiment: microbe, parasite or virus in culture; conditions: ATCC 6538P
Description: Antibacterial activity against Staphylococcus aureus ATCC 6538p by agar-dilution method

Bacillus subtilis = experiment: microbe, parasite or virus in culture; conditions: ATCC 6633
Description: Antibacterial activity against Bacillus subtilis ATCC 6633 by agar-dilution method

Pseudomonas aeruginosa = experiment: microbe, parasite or virus in culture; conditions: ATCC 9027
Description: Antibacterial activity against Pseudomonas aeruginosa ATCC 9027 by agar-dilution method

Staphylococcus aureus [3] = experiment: Antibacterial activity against methicillin-resistant Staphylococcus aureus 2 by agar-dilution method
Staphylococcus aureus [4] = experiment: Antibacterial activity against methicillin-resistant Staphylococcus aureus 1 by agar-dilution method

SMILES | MIC (Klebsiella pneumoniae) [µg/mL] | MIC [1] [µg/mL] | MIC (Escherichia coli) [µg/mL] | MIC (Staphylococcus aureus [2]) [µg/mL] | MIC (Bacillus subtilis) [µg/mL] | MIC (Pseudomonas aeruginosa) [µg/mL] | MIC (Staphylococcus aureus [3]) [µg/mL] | MIC (Staphylococcus aureus [4]) [µg/mL]
CCn1cc(C(=O)O)c(=O)c2cc(F)c(N3CCNCC3)nc21 [ENOXACIN] | 0.098 (≈ 0.306 µM) | 0.78 (≈ 2.44 µM) | 0.098 (≈ 0.306 µM) | 1.56 (≈ 4.87 µM) | 0.098 (≈ 0.306 µM) | 6.25 (≈ 19.5 µM) |  | 
O=C(O)c1cn(C2CC2)c2cc(N3CCNCC3)c(F)cc2c1=O [CIPROFLOXACIN] | 0.025 (≈ 0.0754 µM) | 0.39 (≈ 1.18 µM) | 0.025 (≈ 0.0754 µM) | 0.39 (≈ 1.18 µM) | 0.025 (≈ 0.0754 µM) | 0.78 (≈ 2.35 µM) | 0.39 (≈ 1.18 µM) | 0.39 (≈ 1.18 µM)
CO/N=C(\CN1CCN(c2cc3c(cc2F)c(=O)c(C(=O)O)cn3C2CC2)CC1)c1ccc(Cl)cc1Cl | 0.012 (≈ 0.0219 µM) | 0.39 (≈ 0.712 µM) | 0.025 (≈ 0.0457 µM) | 0.39 (≈ 0.712 µM) | 0.025 (≈ 0.0457 µM) | 1.56 (≈ 2.85 µM) | 0.39 (≈ 0.712 µM) | 0.39 (≈ 0.712 µM)
O=C(CN1CCN(c2cc3c(cc2F)c(=O)c(C(=O)O)cn3C2CC2)CC1)c1ccc(Cl)cc1 | 0.013 (≈ 0.0269 µM) | 0.195 (≈ 0.403 µM) | 0.025 (≈ 0.0517 µM) | 0.39 (≈ 0.806 µM) | 0.049 (≈ 0.101 µM) | 1.56 (≈ 3.22 µM) | 0.39 (≈ 0.806 µM) | 0.39 (≈ 0.806 µM)
O=C(O)c1cn(C2CC2)c2cc(N3CCN(C/C(=N\O)c4ccc(Cl)cc4)CC3)c(F)cc2c1=O | 0.049 (≈ 0.0982 µM) | 0.195 (≈ 0.391 µM) | 0.78 (≈ 1.56 µM) | 0.39 (≈ 0.782 µM) | 0.78 (≈ 1.56 µM) | 100 (≈ 200 µM) | 0.098 (≈ 0.196 µM) | 0.195 (≈ 0.391 µM)
CO/N=C(\CN1CCN(c2cc3c(cc2F)c(=O)c(C(=O)O)cn3C2CC2)CC1)c1ccccc1Cl | 0.013 (≈ 0.0253 µM) | 0.195 (≈ 0.38 µM) | 0.025 (≈ 0.0487 µM) | 0.39 (≈ 0.76 µM) | 0.049 (≈ 0.0955 µM) | 6.25 (≈ 12.2 µM) | 0.39 (≈ 0.76 µM) | 0.39 (≈ 0.76 µM)
O=C(O)c1cn(C2CC2)c2cc(N3CCN(C/C(=N\O)c4ccccc4Cl)CC3)c(F)cc2c1=O | 0.025 (≈ 0.0501 µM) | 0.195 (≈ 0.391 µM) | 0.78 (≈ 1.56 µM) | 0.39 (≈ 0.782 µM) | 0.78 (≈ 1.56 µM) | 25 (≈ 50.1 µM) | 0.39 (≈ 0.782 µM) | 0.39 (≈ 0.782 µM)
CO/N=C(\CN1CCN(c2cc3c(cc2F)c(=O)c(C(=O)O)cn3C2CC2)CC1)c1ccc(Cl)cc1 | 0.78 (≈ 1.52 µM) | 0.39 (≈ 0.76 µM) | 1.56 (≈ 3.04 µM) | 0.78 (≈ 1.52 µM) | 1.56 (≈ 3.04 µM) | > 100 | 0.39 (≈ 0.76 µM) | 0.39 (≈ 0.76 µM)
O=C(CN1CCN(c2cc3c(cc2F)c(=O)c(C(=O)O)cn3C2CC2)CC1)c1ccccc1Cl | 0.025 (≈ 0.0517 µM) | 0.195 (≈ 0.403 µM) | 0.098 (≈ 0.203 µM) | 0.39 (≈ 0.806 µM) | 0.049 (≈ 0.101 µM) | 6.25 (≈ 12.9 µM) | 0.39 (≈ 0.806 µM) | 0.39 (≈ 0.806 µM)
CCn1cc(C(=O)O)c(=O)c2cc(F)c(N3CCNCC3)cc21 [NORFLOXACIN] | 0.049 (≈ 0.153 µM) | 0.78 (≈ 2.44 µM) | 0.049 (≈ 0.153 µM) | 0.78 (≈ 2.44 µM) | 0.049 (≈ 0.153 µM) | 3.13 (≈ 9.8 µM) | 0.78 (≈ 2.44 µM) | 0.78 (≈ 2.44 µM)

Second part, led by results:

MIC (Klebsiella pneumoniae) [µg/mL] | MIC [1] [µg/mL] | MIC (Escherichia coli) [µg/mL] | MIC (Staphylococcus aureus [2]) [µg/mL] | MIC (Bacillus subtilis) [µg/mL] | MIC (Pseudomonas aeruginosa) [µg/mL] | SMILES | MIC (Staphylococcus aureus [3]) [µg/mL] | MIC (Staphylococcus aureus [4]) [µg/mL]
3.13 (≈ 6.3 µM) | 6.25 (≈ 12.6 µM) | 3.13 (≈ 6.3 µM) | 6.25 (≈ 12.6 µM) | 6.25 (≈ 12.6 µM) | 50 (≈ 101 µM) | CO/N=C(\CN1CCN(c2cc3c(cc2F)c(=O)c(C(=O)O)cn3C2CC2)CC1)c1ccc(F)cc1 |  | 
0.78 (≈ 1.52 µM) | 6.25 (≈ 12.1 µM) | 1.56 (≈ 3.03 µM) | 6.25 (≈ 12.1 µM) | 0.78 (≈ 1.52 µM) | 12.5 (≈ 24.3 µM) | CO/N=C(\CN1CCN(c2cc3c(cc2F)c(=O)c(C(=O)O)cn3C2CC2)CC1)c1ccc(F)cc1F |  | 
1.56 (≈ 3.21 µM) | 6.25 (≈ 12.9 µM) | 6.25 (≈ 12.9 µM) | 12.5 (≈ 25.7 µM) | 6.25 (≈ 12.9 µM) | 100 (≈ 206 µM) | CCn1cc(C(=O)O)c(=O)c2cc(F)c(N3CCN(C/C(=N\OC)c4ccc(F)cc4)CC3)nc21 |  | 
12.5 (≈ 26.8 µM) | 25 (≈ 53.6 µM) | 12.5 (≈ 26.8 µM) | 25 (≈ 53.6 µM) | 6.25 (≈ 13.4 µM) | > 100 | CCn1cc(C(=O)O)c(=O)c2cc(F)c(N3CCN(C/C(=N\OC)c4ccccc4)CC3)cc21 |  | 
12.5 (≈ 26.7 µM) | 25 (≈ 53.5 µM) | 12.5 (≈ 26.7 µM) | 25 (≈ 53.5 µM) | 12.5 (≈ 26.7 µM) | > 100 | CCn1cc(C(=O)O)c(=O)c2cc(F)c(N3CCN(C/C(=N\OC)c4ccccc4)CC3)nc21 |  | 
25 (≈ 49.7 µM) | 25 (≈ 49.7 µM) | 50 (≈ 99.3 µM) | 25 (≈ 49.7 µM) | 1.56 (≈ 3.1 µM) | > 100 | CCn1cc(C(=O)O)c(=O)c2cc(F)c(N3CCN(C/C(=N\OC)c4ccc(F)cc4F)CC3)nc21 |  | 
6.25 (≈ 11.7 µM) | 12.5 (≈ 23.3 µM) | 12.5 (≈ 23.3 µM) | 12.5 (≈ 23.3 µM) | 12.5 (≈ 23.3 µM) | > 100 | CCn1cc(C(=O)O)c(=O)c2cc(F)c(N3CCN(C/C(=N\OC)c4ccc(Cl)cc4Cl)CC3)cc21 |  | 
6.25 (≈ 11.7 µM) | 25 (≈ 46.6 µM) | 12.5 (≈ 23.3 µM) | 25 (≈ 46.6 µM) | 12.5 (≈ 23.3 µM) | 50 (≈ 93.2 µM) | CCn1cc(C(=O)O)c(=O)c2cc(F)c(N3CCN(C/C(=N\OC)c4ccc(Cl)cc4Cl)CC3)nc21 |  | 
0.78 (≈ 1.61 µM) | 1.56 (≈ 3.22 µM) | 3.13 (≈ 6.46 µM) | 6.25 (≈ 12.9 µM) | 3.13 (≈ 6.46 µM) | 100 (≈ 206 µM) | CCn1cc(C(=O)O)c(=O)c2cc(F)c(N3CCN(C/C(=N\OC)c4ccc(F)cc4)CC3)cc21 |  | 
3.13 (≈ 6.54 µM) | 12.5 (≈ 26.1 µM) | 6.25 (≈ 13.1 µM) | 12.5 (≈ 26.1 µM) | 6.25 (≈ 13.1 µM) | 100 (≈ 209 µM) | CO/N=C(\CN1CCN(c2cc3c(cc2F)c(=O)c(C(=O)O)cn3C2CC2)CC1)c1ccccc1 |  | 
12.5 (≈ 24.9 µM) | 12.5 (≈ 24.9 µM) | 25 (≈ 49.8 µM) | 12.5 (≈ 24.9 µM) | 1.56 (≈ 3.1 µM) | > 100 | CCn1cc(C(=O)O)c(=O)c2cc(F)c(N3CCN(C/C(=N\OC)c4ccc(F)cc4F)CC3)cc21 |  | 
